Data reported in patent publication US20130005696A1, “BUFADIENOLIDE DERIVATIVES, PREPARING PROCESS THEREOF, COMPOSITION COMPRISING THE SAME AND THE USE THEREOF” (priority 2011, published 2013).

Experiments:
[1] = tested on: HeLa human cervical carcinoma cell line; assay: In vitro antitumor activity assay (SRB), HeLa; type: cell-based; conditions: read-out: IC50, inhibitory activity on cell proliferation of HeLa cell line
Source text: (§1) HeLa human cervical carcinoma cell line, A-549 human non-small cell lung carcinoma cell line, NCI-H2228 human lung carcinoma cell line, NCI-H460 human lung carcinoma cell line, MDA-MB-231 human breast carcinoma cell line, MCF-7 human breast carcinoma cell line, Bel-7402 human hepatic carcinoma cell line, Hep3B human hepatic carcinoma cell line, QGY-7703 human hepatic carcinoma cell line, MV-4-11 human leukemic cell line, DAUDI human leukemic cell line, Jurkat human leukemic cell line, A498 renal carcinoma cell line, LoVo human colon carcinoma cell line, HCT1116 human colon carcinoma cell line, A431 human skin carcinoma cell line, PANC-1 human pancreatic carcinoma cell line, U87-MG human brain carcinoma cell line, SH-SY5Y human brain carcinoma cell line, RPMI-8226 human bone carcinoma cell line, HT1080 human fibrosarcoma cell line, PC-3 human prostatic carcinoma cell line, AGS human gastric adenocarcinoma cell line, and BGC-823 human gastric adenocarcinoma cell line were purchased from the Cell Bank of the Chinese Academy of Sciences.
(§2) The positive control is bufalin (formulated according to the common method), its purity is 98% or more by HPLC-UV and its structure is identified by NMR. The compounds to be tested and the positive control were diluted with normal saline with a concentration gradient of 10^−4 M, 10^−5 M, 10^−6 M, 10^−7 M and 10^−8 M.
(§3) According to cell growth rate, tumor cells in the log phase of growth were seeded into 96-well culture plates at 100 μL per well, and allowed to attach for 24 hours, followed by addition of a test compound or positive control at 10 μL per well. For each concentration, the test was carried out in triplicate wells. Solvent control wells with addition of normal saline into cell culture and a blank well containing only cell culture medium but without cells for zeroing were also included. The tumor cells were incubated for 72 hours at 37° C. under 5% CO2, and then the culture medium (RPMI-1640) was removed. The cells were fixed with 10% cool TCA by incubating for 1 h at 4° C., washed with distilled water for 5 times, and dried naturally in the air. A solution of SRB (Sigma) (4 mg/mL) in 1% glacial acetic acid was added at 100 μL per well, and the cells were stained for 15 minutes at room temperature, and the supernatant was discarded. The plates were washed for 5 times with 1% acetic acid, and dried in air. Finally, Tris solution was added at 150 μL per well, and the absorbance (A) was measured at a wavelength of 515 nm using a microplate reader. The growth inhibition on tumor cell proliferation was calculated according to the following equation:
(§4) Growth Inhibition (%)=[(Absorbance of negative control−Absorbance of blank)−(Absorbance of sample−Absorbance of blank)]/(Absorbance of negative control−Absorbance of blank)×100%
(§5) Drug concentration: 10 μM, 1 μM, 0.1 μM, 10 nM, 1 nM, 0.1 nM.
(§6) IC50 was fitted by GraphPad Prism 4.

[2] = tested on: A-549 human non-small cell lung carcinoma cell line; assay: In vitro antitumor activity assay (SRB), A549; type: cell-based; conditions: Homo sapiens; A549, 72 h, Table 3; read-out: IC50 (72 h), A549
Source text: as §1, §2, §3, §4, §5, §6

[3] = tested on: MCF-7 human breast carcinoma cell line; assay: In vitro antitumor activity assay (SRB), MCF-7; type: cell-based; conditions: Homo sapiens, MCF7; MCF-7, 72 h, Table 3; read-out: IC50 (72 h), MCF-7
Source text: as §1, §2, §3, §4, §5, §6

[4] = tested on: PC-3 human prostatic carcinoma cell line; assay: In vitro antitumor activity assay (SRB), PC-3; type: cell-based; conditions: Homo sapiens, Prostatic carcinoma cell; PC-3, 72 h, Table 3; read-out: IC50 (72 h), PC-3
Source text: as §1, §2, §3, §4, §5, §6

[5] = tested on: MV-4-11 human leukemic cell line; assay: In vitro antitumor activity assay (SRB), MV-4-11; type: cell-based; conditions: Homo sapiens, MV4-11; MV-4-11, 72 h, Table 3
Source text: as §1, §2
(§7) According to cell growth rate, tumor cells in the log phase of growth were seeded into 96-well culture plates at 100 μL per well, and allowed to attach for 24 hours, followed by addition of a test compound or positive control at 10 μL per well. For each concentration, the test was carried out in triplicate wells. […] Finally, Tris solution was added at 150 μL per well, and the absorbance (A) was measured at a wavelength of 515 nm using a microplate reader. The growth inhibition on tumor cell proliferation was calculated according to the following equation:
(§8) Growth Inhibition (%)=[(Absorbance of negative control−Absorbance of blank)−(Absorbance of sample−Absorbance of blank)]/(Absorbance of negative control−Absorbance of blank)×100% […]

[6] = tested on: Jurkat human leukemic cell line; assay: In vitro antitumor activity assay (SRB), Jurkat; type: cell-based; conditions: Homo sapiens, 72 h, Table 3
Source text: as §1, §2, §7, §8

[7] = tested on: DAUDI human leukemic cell line; assay: In vitro antitumor activity assay (SRB), Daudi; type: cell-based; conditions: Homo sapiens, 72 h, Table 3
Source text: as §1, §2, §7, §8

[8] = tested on: HT1080 human fibrosarcoma cell line; assay: In vitro antitumor activity assay (SRB), HT1080; type: cell-based; conditions: Homo sapiens, HT-1080; HT1080, 72 h, Table 3
Source text: as §1, §2, §7, §8

[9] = tested on: NCI-H460 human lung carcinoma cell line; assay: In vitro antitumor activity assay (SRB), NCI-H460; type: cell-based; conditions: Homo sapiens; NCI-H460, 72 h, Table 3
Source text: as §1, §2, §7, §8

[10] = tested on: NCI-H2228 human lung carcinoma cell line; assay: In vitro antitumor activity assay (SRB), NCI-H2228; type: cell-based; conditions: Homo sapiens; NCI-H2228, 72 h, Table 3
Source text: as §1, §2, §7, §8

[11] = tested on: AGS human gastric adenocarcinoma cell line; assay: In vitro antitumor activity assay (SRB), AGS; type: cell-based; conditions: Homo sapiens, 72 h, Table 3
Source text: as §1, §2, §7, §8

[12] = tested on: BGC-823 human gastric adenocarcinoma cell line; assay: In vitro antitumor activity assay (SRB), BGC-823; type: cell-based; conditions: Homo sapiens; BGC-823, 72 h, Table 3
Source text: as §1, §2, §7, §8

[13] = tested on: MDA-MB-231 human breast carcinoma cell line; assay: In vitro antitumor activity assay (SRB), MDA-MB-231; type: cell-based; conditions: Homo sapiens; MDA-MB-231, 72 h, Table 3
Source text: as §1, §2, §7, §8

[14] = tested on: HepG2 human-derived tumor cell line; assay: In vitro antitumor activity assay (SRB), HepG2; type: cell-based; conditions: Homo sapiens; HepG2, 72 h, Table 3
[15] = tested on: Hep3B human hepatic carcinoma cell line; assay: In vitro antitumor activity assay (SRB), Hep3B; type: cell-based; conditions: Homo sapiens, 72 h, Table 3
Source text: as §1, §2, §7, §8

[16] = tested on: QGY-7703 human hepatic carcinoma cell line; assay: In vitro antitumor activity assay (SRB), QGY7703; type: cell-based; conditions: Homo sapiens, QGY-7703; QGY7703, 72 h, Table 3
Source text: as §1, §2, §7, §8

[17] = tested on: A498 renal carcinoma cell line; assay: In vitro antitumor activity assay (SRB), A498; type: cell-based, human; conditions: Homo sapiens; A498, 72 h, Table 3
Source text: as §1, §2, §7, §8

[18] = tested on: HCT-116 human-derived tumor cell line; assay: In vitro antitumor activity assay (SRB), HCT-116; type: cell-based; conditions: Homo sapiens; HCT-116, 72 h, Table 3
Source text: as §1, §2, §7, §8

[19] = tested on: A431 human skin carcinoma cell line; assay: In vitro antitumor activity assay (SRB), A431; type: cell-based; conditions: Homo sapiens, A-431; A431, 72 h, Table 3
Source text: as §1, §2, §7, §8

[20] = tested on: PANC-1 human pancreatic carcinoma cell line; assay: In vitro antitumor activity assay (SRB), PANC-1; type: cell-based; conditions: Homo sapiens; PANC-1, 72 h, Table 3
Source text: as §1, §2, §7, §8

[21] = tested on: RPMI-8226 human bone carcinoma cell line; assay: In vitro antitumor activity assay (SRB), RPMI8226; type: cell-based; conditions: Homo sapiens, RPMI-8226; RPMI8226, 72 h, Table 3
Source text: as §1, §2, §7, §8

[22] = tested on: U87-MG human brain carcinoma cell line; assay: In vitro antitumor activity assay (SRB), U87-MG; type: cell-based; conditions: Homo sapiens, U-87 MG, 72 h, Table 3
Source text: as §1, §2, §7, §8

`C[C@]12CC[C@H](OC(=O)NC3CCNCC3)C[C@H]1CC[C@@H]1[C@@H]2CC[C@]2(C)[C@@H](c3ccc(=O)oc3)CC[C@]12O` [II1E-01] showed an IC50 [1] of 1.4 nM, an IC50 [2] of 0.77 ± 0.28 nM and an IC50 [3] of 9.97 ± 1.45 nM. The IC50 [4] was 0.41 ± 0.1 nM, the IC50 [5] was 1.12 ± 0.29 nM and the IC50 [6] was 1.09 ± 0.26 nM. For the same compound, the IC50 [7] was 2.86 ± 0.21 nM, the IC50 [8] was 2.9 ± 0.33 nM and the IC50 [9] was 0.56 ± 0.05 nM. For the same compound, the IC50 [10] was 2.5 ± 0.34 nM, the IC50 [11] was 9.62 ± 0.69 nM and the IC50 [12] was 0.81 ± 0.07 nM. For the same compound, the IC50 [13] was 7.46 ± 0.33 nM, the IC50 [14] was 0.51 ± 0.04 nM and the IC50 [15] was greater than 1000 nM. The IC50 [16] was 1.11 ± 0.08 nM, the IC50 [17] was 0.4 ± 0.03 nM and the IC50 [18] was 2.91 ± 0.09 nM. The IC50 [19] was 2.62 ± 0.19 nM, the IC50 [20] was 0.72 ± 0.19 nM and the IC50 [21] was 1.53 ± 0.1 nM. It also gave an IC50 [22] of 1.28 ± 0.36 nM.
